Molecular target: T1, Recombinant truncated stromelysin (human sequence) (Homo sapiens, UniProt P08254)
T1 construct: made in house; host or cells: E. coli
Test: Inhibition of stromelysin (cleavage of thiopeptide ester substrate, DTNB readout at 405 nm)
Format: biochemical
Conditions: 30 minute assay, ambient temperature, pH 6.5, thiopeptide ester substrate
Description: The efficacy of the compounds of this invention as matrix metalloproteinase inhibitors was determined by measuring the inhibition of stromelysin. The inhibition of stromelysin by the compounds of this invention was determined as follows: Recombinant truncated stromelysin (human sequence) produced in E. coli was prepared by expression and purification of the protein as described by Ye et al. (Biochemistry, 1992, 31, 11231-11235, which is incorporated herein by reference). The enzyme was assayed by its cleavage of the thiopeptide ester substrate Ac-Pro-Leu-Gly-[2-mercapto-4-methylpentanoyl]-Leu-Gly-OEt as described by Weingarten and Feder (Anal. Biochem., 1985, 147, 437-440 (1985), which is incorporated herein by reference) as a substrate of vertebrate collagenase. The reported conditions were modified to allow assays to be carried out in a microtiter plate. Upon hydrolysis of the thioester bond, the released thiol group reacted rapidly with 5,5'-dithio-bis(2-nitrobenzoic acid) (DTNB) to produce a yellow color which was measured by a microtiter plate reader set at 405 nm. The rates of cleavage of the substrate by stromelysin in the presence or absence of inhibitors were measured in a 30 minute assay at ambient temperature. […] The potency of the compounds [IC50 ] was calculated from the inhibition/inhibitor concentration data.

T1 sequence (P08254 100-273 limits assumed): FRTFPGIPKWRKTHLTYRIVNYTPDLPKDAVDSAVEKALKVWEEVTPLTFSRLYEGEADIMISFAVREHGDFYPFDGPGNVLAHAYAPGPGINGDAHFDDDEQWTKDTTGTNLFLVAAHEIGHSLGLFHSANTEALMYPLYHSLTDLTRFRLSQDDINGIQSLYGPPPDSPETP

With `CN1C(=O)N(CCC(COc2ccc(-c3ccc(C#N)cc3)cc2)N(O)C=O)C(=O)C1(C)C` (racemic) [Example 5, (±)-N-[1-[[(4'-cyano-[1,1'-biphenyl]-4-yl)oxy]methyl]-3-(3,4,4-trimethyl-2,5-dioxo-1-imidazolidinyl)propyl]-N-hydroxyformamide] the IC50 was 17 nM.
